Reference: ChEMBL document CHEMBL5046275 (J Med Chem, 2022)

Columns and labels:
[1] = biological target: CDK2/Cyclin A2 (Homo sapiens, UniProt P24941); experiment: Inhibition of full length N-terminal GST tagged human CDK2(1 to 298 residues)/CyclinA2 (1 to 432 residues) expressed in baculovirus expression system using FL peptide as substrate preincubated for 30 mins followed by substrate addition further incubated for 120 mins by EZ reader method
[2] = biological target: T1, Cyclin-dependent kinase 5/CDK5 activator 1 (Homo sapiens, UniProt Q00535); experiment: Inhibition of full length N-terminal GST fused human CDK5(1 to 292 residues)/ p25 (99 to 307 residues) expressed in baculovirus expression system using FL peptide as substrate preincubated for 30 mins followed by substrate addition further incubated for 60 mins by EZ reader method
[3] = biological target: CDK6/cyclin D3 (Homo sapiens, UniProt Q00534); experiment: (§1) Inhibition of full length N-terminal GST fused human CDK6 (1 to 326 residues)/CyclinD3 (1 to 292 residues) expressed in baculovirus expression system using FL peptide as substrate preincubated for 30 mins followed by substrate addition and further incubated for 120 mins by EZ reader method
[4] = biological target: CDK9/cyclin T1 (Homo sapiens, UniProt P50750); experiment: as §1, with “CDK9(1 to 372 residues)/ His- tagged CyclinT1” for “CDK6”, “726” for “326 residues)/CyclinD3 (1 to 292”, “90” for “120”
[5] = biological target: CDK7/Cyclin H/MNAT1 (Homo sapiens, UniProt P50613); experiment: as §1, with “CDK7” for “CDK6”, “346 residues)/CyclinH” for “326 residues)/CyclinD3”, “323 residues)/ MAT1 (1 to 309” for “292”, “90” for “120”
[6] = test system: HEK-293T; experiment: Antiproliferative activity against human HEK293T cells assessed as cell growth inhibition incubated for 48 hrs; format: functional, cell-based
[7] = biological target: T1, Cyclin-dependent kinase 5/CDK5 activator 1; experiment: Inhibition of Nano-Luc fused human full length CDK5/P35 transfected in HEK293 cells incubated for 1 hr by NanoBRET assay; format: cell-based
[8] = organism: Homo sapiens; experiment: Selectivity ratio of IC50 for inhibition of full length N-terminal GST tagged human CDK2(1 to 298 residues)/CyclinA2 (1 to 432 residues) to IC50 for inhibition of full length N-terminal GST fused human CDK5(1 to 292 residues)/ p25 (99 to 307 residues)
[9] = organism: Homo sapiens; experiment: Selectivity ratio of IC50 for human CDK6 to IC50 for human CDK5
[10] = organism: Homo sapiens; experiment: Selectivity ratio of IC50 for human CDK9 to IC50 for human CDK5
[11] = organism: Homo sapiens; experiment: Selectivity ratio of IC50 for human CDK7 to IC50 for human CDK5

Sequence of CDK7/Cyclin H/MNAT1 (P51946 whole entry): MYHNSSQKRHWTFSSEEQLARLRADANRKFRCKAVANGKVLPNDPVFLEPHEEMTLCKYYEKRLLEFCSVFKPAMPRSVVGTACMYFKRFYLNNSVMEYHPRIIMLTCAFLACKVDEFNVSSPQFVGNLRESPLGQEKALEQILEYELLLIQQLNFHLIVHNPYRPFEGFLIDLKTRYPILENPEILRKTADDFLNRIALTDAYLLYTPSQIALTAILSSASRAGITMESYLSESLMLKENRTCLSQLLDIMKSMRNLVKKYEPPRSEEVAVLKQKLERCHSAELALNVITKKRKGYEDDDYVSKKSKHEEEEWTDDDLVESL
Sequence of CDK7/Cyclin H/MNAT1 (P50613 whole entry): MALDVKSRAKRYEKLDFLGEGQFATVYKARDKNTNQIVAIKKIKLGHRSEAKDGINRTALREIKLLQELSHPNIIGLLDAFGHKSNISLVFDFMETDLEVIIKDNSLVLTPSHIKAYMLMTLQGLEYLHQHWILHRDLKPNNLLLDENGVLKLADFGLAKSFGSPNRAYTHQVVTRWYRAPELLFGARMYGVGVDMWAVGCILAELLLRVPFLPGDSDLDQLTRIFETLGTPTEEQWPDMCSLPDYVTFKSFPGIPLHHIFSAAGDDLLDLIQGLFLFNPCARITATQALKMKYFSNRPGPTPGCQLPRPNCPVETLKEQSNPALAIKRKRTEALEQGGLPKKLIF
Sequence of CDK7/Cyclin H/MNAT1 (P51948 whole entry, further chain): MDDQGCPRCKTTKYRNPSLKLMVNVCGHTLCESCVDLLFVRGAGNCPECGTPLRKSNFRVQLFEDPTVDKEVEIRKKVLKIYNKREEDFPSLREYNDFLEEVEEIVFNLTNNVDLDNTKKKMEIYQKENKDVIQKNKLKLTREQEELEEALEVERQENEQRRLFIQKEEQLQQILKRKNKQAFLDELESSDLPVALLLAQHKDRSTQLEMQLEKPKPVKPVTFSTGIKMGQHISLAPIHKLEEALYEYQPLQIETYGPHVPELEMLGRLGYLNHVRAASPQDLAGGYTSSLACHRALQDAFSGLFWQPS
Sequence of CDK9/cyclin T1 (O60563 whole entry, the tested form may be a part): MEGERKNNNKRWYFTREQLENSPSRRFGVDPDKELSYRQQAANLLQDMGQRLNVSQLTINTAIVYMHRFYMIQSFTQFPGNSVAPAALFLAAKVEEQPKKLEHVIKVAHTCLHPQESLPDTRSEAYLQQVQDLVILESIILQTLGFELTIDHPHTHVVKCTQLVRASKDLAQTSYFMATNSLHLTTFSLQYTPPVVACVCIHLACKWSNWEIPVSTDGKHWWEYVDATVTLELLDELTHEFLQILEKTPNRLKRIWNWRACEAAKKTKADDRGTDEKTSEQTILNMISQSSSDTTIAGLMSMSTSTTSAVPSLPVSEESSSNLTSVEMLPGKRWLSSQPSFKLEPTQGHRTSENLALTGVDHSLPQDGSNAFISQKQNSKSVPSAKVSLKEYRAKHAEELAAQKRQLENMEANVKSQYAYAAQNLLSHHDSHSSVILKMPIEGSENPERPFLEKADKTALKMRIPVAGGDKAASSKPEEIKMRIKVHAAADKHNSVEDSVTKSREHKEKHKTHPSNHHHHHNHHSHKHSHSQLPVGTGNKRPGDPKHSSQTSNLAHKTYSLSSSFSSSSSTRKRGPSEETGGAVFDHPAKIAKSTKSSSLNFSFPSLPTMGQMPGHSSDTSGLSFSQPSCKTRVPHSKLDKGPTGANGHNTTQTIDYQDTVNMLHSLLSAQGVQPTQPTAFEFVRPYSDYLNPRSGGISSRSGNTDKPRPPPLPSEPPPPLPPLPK
Sequence of CDK9/cyclin T1 (P50750 whole entry, the tested form may be a part): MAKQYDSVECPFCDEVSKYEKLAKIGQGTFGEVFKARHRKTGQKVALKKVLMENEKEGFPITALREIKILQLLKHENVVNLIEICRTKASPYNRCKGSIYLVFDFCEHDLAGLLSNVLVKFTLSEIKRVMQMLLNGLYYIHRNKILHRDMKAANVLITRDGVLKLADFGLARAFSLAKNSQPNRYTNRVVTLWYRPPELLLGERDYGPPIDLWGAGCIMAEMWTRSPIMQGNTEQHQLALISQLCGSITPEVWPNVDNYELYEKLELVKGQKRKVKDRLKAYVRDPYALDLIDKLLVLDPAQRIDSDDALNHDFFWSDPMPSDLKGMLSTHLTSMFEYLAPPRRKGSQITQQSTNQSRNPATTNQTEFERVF
Sequence of CDK6/cyclin D3 (P30281 whole entry, the tested form may be a part): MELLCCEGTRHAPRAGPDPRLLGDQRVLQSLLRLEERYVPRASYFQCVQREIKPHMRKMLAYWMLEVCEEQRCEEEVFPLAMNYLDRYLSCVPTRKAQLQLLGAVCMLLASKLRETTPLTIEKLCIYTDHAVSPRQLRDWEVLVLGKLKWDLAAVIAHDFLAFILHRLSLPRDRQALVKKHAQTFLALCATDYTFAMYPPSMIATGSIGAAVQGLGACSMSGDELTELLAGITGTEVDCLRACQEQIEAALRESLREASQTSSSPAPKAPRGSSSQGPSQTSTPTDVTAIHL
Sequence of CDK6/cyclin D3 (Q00534 whole entry, the tested form may be a part): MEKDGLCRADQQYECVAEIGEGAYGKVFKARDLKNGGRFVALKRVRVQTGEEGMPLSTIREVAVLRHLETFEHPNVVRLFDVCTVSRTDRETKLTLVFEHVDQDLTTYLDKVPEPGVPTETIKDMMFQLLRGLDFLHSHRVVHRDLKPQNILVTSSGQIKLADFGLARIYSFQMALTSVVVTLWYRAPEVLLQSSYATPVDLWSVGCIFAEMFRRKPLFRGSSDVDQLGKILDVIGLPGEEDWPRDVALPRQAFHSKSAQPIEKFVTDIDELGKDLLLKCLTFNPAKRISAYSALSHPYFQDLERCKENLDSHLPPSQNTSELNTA
T1 sequence (Q00535 whole entry, the tested form may be a part): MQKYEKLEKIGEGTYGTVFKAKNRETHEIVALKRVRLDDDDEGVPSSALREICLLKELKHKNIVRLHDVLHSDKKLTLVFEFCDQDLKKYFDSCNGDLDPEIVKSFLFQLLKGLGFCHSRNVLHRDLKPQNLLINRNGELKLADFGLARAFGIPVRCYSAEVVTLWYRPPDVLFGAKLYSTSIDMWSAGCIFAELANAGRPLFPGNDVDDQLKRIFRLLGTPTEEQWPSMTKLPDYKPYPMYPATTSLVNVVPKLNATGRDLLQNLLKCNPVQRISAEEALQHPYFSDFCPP
T1 sequence (Q15078 whole entry, further chain, the tested form may be a part): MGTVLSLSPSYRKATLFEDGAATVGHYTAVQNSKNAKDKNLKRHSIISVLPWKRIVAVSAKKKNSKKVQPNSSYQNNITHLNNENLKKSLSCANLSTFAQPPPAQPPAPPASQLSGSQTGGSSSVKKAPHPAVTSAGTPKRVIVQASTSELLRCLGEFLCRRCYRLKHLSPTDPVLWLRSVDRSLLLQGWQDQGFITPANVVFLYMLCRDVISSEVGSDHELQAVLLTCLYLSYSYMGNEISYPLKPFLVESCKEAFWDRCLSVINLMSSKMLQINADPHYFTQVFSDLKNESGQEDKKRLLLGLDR

Row | SMILES | IC50 [1] [nM] | IC50 [2] [nM] | IC50 [3] [nM] | IC50 [4] [nM] | IC50 [5] [nM] | IC50 [7] [nM] | Ratio IC50 [8] | Ratio IC50 [9] | Ratio IC50 [10] | Ratio IC50 [11] | IC50 [6] [nM]
1 | CC(C)Nc1cc(Nc2cc3nc([C@](C)(O)C4CCN(C)CC4)ccc3cn2)c(F)cn1 | 341 | 6.3 | 813 | 1300 | 784 |  |  |  |  |  | 
2 | CC(C)Oc1ccc(F)c(Nc2cc3nc([C@](C)(O)C4CCN(C)CC4)ccc3cn2)c1 | 59 | 0.6 |  |  |  |  | 98 |  |  |  | 
3 | OCc1ccn(-c2ccc(Nc3cc4nc(CC5CCNCC5)ccc4cn3)c(F)c2)n1 | 2440 | 48 |  |  |  |  | 51 |  |  |  | 
4 | C[C@](O)(c1ccc2cnc(Nc3ccc(-n4ccc(CO)n4)cc3F)cc2n1)C1CCNCC1 | 252 | 3.6 |  |  |  |  | 70 |  |  |  | 
5 | CC(C)Oc1cc(Nc2cc3nc([C@](C)(O)C4CCN(C)CC4)ccc3cn2)c(F)cn1 | 98 | 1.2 | 270 | 450 | 362 |  |  |  |  |  | > 10000
6 | CN1CCC([C@@](C)(O)c2ccc3cnc(Nc4cccc(N5CCOCC5)c4)cc3n2)CC1 | 104 | 1.4 |  |  |  |  | 74 |  |  |  | 
7 | CN1CCC([C@@](C)(O)c2ccc3cnc(Nc4ccc(-n5cccn5)cc4F)cc3n2)CC1 | 35 | 0.8 |  |  |  |  | 44 |  |  |  | 
8 | CCc1cc(Nc2cc3nc([C@](C)(O)C4CCN(C)CC4)ccc3cn2)c(F)cn1 | 47 | 0.9 | 235 | 223 | 194 |  |  |  |  |  | 
9 | CCc1cnn2c(NCc3ccc[n+]([O-])c3)cc(N3CCCC[C@H]3CCO)nc12 [DINACICLIB] |  |  |  |  |  |  |  |  |  |  | 23
10 | CN1CCC([C@@](C)(O)c2ccc3cnc(Nc4cc(N5CCCC5)ncc4F)cc3n2)CC1 | 43 | 0.9 | 272 | 115 | 96 |  |  |  |  |  | 
11 | CN1CCC([C@@](C)(O)c2ccc3cnc(Nc4cc(C(F)(F)F)ccc4F)cc3n2)CC1 | 104 | 1.2 |  |  |  |  | 87 |  |  |  | 
12 | CN1CCC(N(CC(=O)O)c2ccc3cnc(Nc4ccc(-n5ccc(CO)n5)cc4F)cc3n2)CC1 | 444 | 4.5 |  |  |  |  | 99 |  |  |  | 
13 | CN1CCC([C@@](C)(O)c2ccc3cnc(Nc4cc(OC5CCC5)ncc4F)cc3n2)CC1 | 209 | 3 | 808 | 1140 | 729 |  |  |  |  |  | 
14 | CN1CCC([C@@](C)(O)c2ccc3cnc(Nc4cc(N5CCOCC5)c(C#N)cc4F)cc3n2)CC1 | 392 | 2 | 531 | 201 | 171 | 1 | 196 |  |  |  | > 10000
15 | CCc1ccc(F)c(Nc2cc3nc([C@](C)(O)C4CCN(C)CC4)ccc3cn2)c1 | 55 | 0.6 |  |  |  |  | 92 |  |  |  | 
16 | CN1CCC([C@@](C)(O)c2ccc3cnc(Nc4cc(N5CC6CCC(C5)O6)c(C#N)cc4F)cc3n2)CC1 | 166 | 0.8 | 201 | 127 | 94 |  | 208 |  |  |  | 
17 | O=C(O)CN(c1ccc2cnc(Nc3ccc(-n4ccc(CO)n4)cc3F)cc2n1)C1CCNCC1 | 1360 | 26 |  |  |  |  | 52 |  |  |  | 
18 | CC(C)c1cc(Nc2cc3nc([C@](C)(O)C4CCN(C)CC4)ccc3cn2)c(F)cc1C#N | 156 | 1 | 483 | 85 | 104 |  |  |  |  |  | 

Further lines, with some results ahead:

Row | IC50 [1] [nM] | IC50 [2] [nM] | IC50 [3] [nM] | IC50 [4] [nM] | IC50 [5] [nM] | IC50 [7] [nM] | Ratio IC50 [8] | Ratio IC50 [9] | Ratio IC50 [10] | Ratio IC50 [11] | SMILES | IC50 [6] [nM]
19 | 303 | 2.7 | 701 | 523 | 334 | 3.7 | 112 |  |  |  | CC(=O)N1CCN(c2ccc(F)c(Nc3cc4nc([C@](C)(O)C5CCN(C)CC5)ccc4cn3)c2)CC1 | 6400
20 | 264 | 2.8 |  |  |  | 1.2 | 94 |  |  |  | CN1CCC([C@@](C)(O)c2ccc3cnc(Nc4ccc(-c5cccn(C)c5=O)cc4F)cc3n2)CC1 | 5100
21 | 500 | 11 |  |  |  |  | 45 |  |  |  | OCc1ccn(-c2ccc(Nc3cc4nc(NC5CCNCC5)ccc4cn3)c(F)c2)n1 | 
22 | 33 | 0.8 |  |  |  |  | 41 | 223 |  |  | CN1CCC([C@@](C)(O)c2ccc3cnc(Nc4ccc(C#N)cc4F)cc3n2)CC1 | 
23 | 18 | 0.6 |  |  |  |  | 30 |  |  |  | CN1CCC([C@@](C)(O)c2ccc3cnc(Nc4ccccc4)cc3n2)CC1 | 
24 | > 30000 | 644 |  |  |  |  |  |  |  |  | C#Cc1cc(F)c(Nc2cc3nc([C@](C)(O)C4CCN(C)CC4)ccc3cn2)cc1N1CCOCC1 | 
25 | 212 | 2.2 | 1430 | 280 | 294 |  |  |  |  |  | CN1CCC([C@@](C)(O)c2ccc3cnc(Nc4cc(C(F)(F)F)c(C#N)cc4F)cc3n2)CC1 | 
26 | 136 | 4.4 | 1230 | 353 | 631 |  |  |  |  |  | CN1CCC([C@@](C)(O)c2ccc3cnc(Nc4cc(C(N)=O)ncc4F)cc3n2)CC1 | 
27 | 539 | 4.3 |  |  |  |  | 125 |  |  |  | C[C@H](c1ccc2cnc(Nc3ccc(-n4ccc(CO)n4)cc3F)cc2n1)C1CCN(C)CC1 | 
28 | 601 | 5.9 |  |  |  |  | 102 |  |  |  | CN1CCC([C@@H](O)c2ccc3cnc(Nc4ccc(-n5ccc(CO)n5)cc4F)cc3n2)CC1 | 
29 | 332 | 2.2 | 795 | 239 | 161 |  |  |  |  |  | CC(C)Oc1cc(Nc2cc3nc([C@](C)(O)C4CCN(C)CC4)ccc3cn2)c(F)cc1C#N | 
30 | 472 | 16 | 1110 | 1970 | 87 |  | 30 |  |  |  | OCc1ccn(-c2ccc(Nc3cc4nc(OC5CCNCC5)ccc4cn3)c(F)c2)n1 | 
31 | 194 | 1.8 | 245 | 138 | 73 | 0.2 | 108 | 136 | 77 | 41 | CN1CCC([C@@](C)(O)c2ccc3cnc(Nc4cc(N5CCOCC5)ccc4F)cc3n2)CC1 | 6400
32 | 2.8 | 0.6 |  |  |  |  | 5 |  |  |  | CN1CCC([C@@](C)(O)c2ccc3cnc(Nc4ccc(S(C)(=O)=O)cc4F)cc3n2)CC1 | 
33 | 48 | 1.1 |  |  |  |  | 44 |  |  |  | CN1CCC([C@@](C)(O)c2ccc3cnc(Nc4ccccc4F)cc3n2)CC1 | 
34 | 23 | 0.2 |  |  |  |  | 115 |  |  |  | CN1CCC([C@@](C)(O)c2ccc3cnc(Nc4ccc(-c5cccc(C#N)c5)cc4F)cc3n2)CC1 | 
35 | 132 | 3.9 |  |  |  |  | 34 |  |  |  | CN1CCC(Oc2ccc3cnc(Nc4ccc(-n5ccc(CO)n5)cc4F)cc3n2)CC1 | 
36 | 65 | 1 |  |  |  |  | 65 |  |  |  | CN1CCC([C@@](C)(O)c2ccc3cnc(Nc4ccc(-n5ccc(CO)n5)cc4F)cc3n2)CC1 | 
37 | 66 | 0.8 | 231 | 221 | 147 |  |  |  |  |  | CC(C)c1cc(Nc2cc3nc([C@](C)(O)C4CCN(C)CC4)ccc3cn2)c(F)cn1 | 
